{"source": "patent US20230075368A1", "about": "“IDENTIFICATION OF AN EGFR-BIN3 PATHWAY THAT ACTIVELY SUPPRESSES INVASION AND REDUCES TUMOR SIZE IN GLIOBLASTOMA” (The United States Govemment as represented by the …, priority 2020, published 2023)", "assay_type_in_all_cases": "cell-based, human", "key": {"EGR1": {"tested_on": "EGR1", "test": "EGR1 levels (qPCR, Western blot) and EGR1 promoter luciferase assay", "protocol": "Whole protein extracts from cells or tumor tissues were analyzed by western blot as previously described (Altieri et al. (2015) Surg. Technol. Int 27: 297-302). Mayo PDX cells were serum starved overnight. Following treatment for specific time, cells were harvested and lysed. The human glioblastoma tissues were ground in liquid nitrogen and then were lysed. EGFR (06-847) antibody was from Millipore. DOCK7 was from Proteintech (Rosemont, Ill.). pEGFR (2236), STAT3 (12640), pSTAT3 (9145), cdc42(4376), and RhoA (4695) antibodies were from Cell Signaling Technology (Danvers, Mass.). TGFα antibody was from R&D system. BIN3 (sc-514396) and (3-Actin (sc-47778) were from Santa Cruz Biotechnology (Dallas, Tex.).\nTotal RNA from cells was extracted by TRIzol Reagent (Ambion). First-strand cDNA and PCR was performed as described previously (Altieri et al. (2015) Surg. Technol. Int. 27: 297-302). The expression of each gene was normalized to GAPDH as a reference. The following primers were used. BIN3, 5′-[…]-3′ (SEQ ID NO:5) and 5′-[…]-3′ (SEQ ID NO:6); GAPDH, 5′-[…]-3′ (SEQ ID NO:7) and 5′-TGATG-[…]-3′ (SEQ ID NO:8).\nCells were plated in 48 well dishes to 70%-80% confluence followed by transfection with EGR1 promoter plasmid or empty plasmid using lipofectamine 2000. […] Firefly luciferase activity was measured in a luminometer and normalized on the basis of Renilla luciferase activity."}, "GBM12, GBM6, and GBM22": {"tested_on": "GBM12, GBM6, and GBM22", "test": "Bromodeoxyuridine cell proliferation assay", "details": "48 hours", "protocol": "Cell proliferation was assessed using the bromodeoxyuridine (BrdU) cell proliferation enzyme-linked immunosorbent assay kit (Abcam, Cambridge, United Kingdom) according to the manufacturer's instructions."}, "GBM12 and GBM22 cells": {"tested_on": "GBM12 and GBM22 cells", "test": "Single cell migration assay on nanoplates", "source_text": "For time-lapse analysis of individual cell movement, nano-ridge constructed of transparent poly(urethane acrylate) (PUA), and fabricated using UV-assisted capillary lithography as described by Kim et al. were used (Kim, D et al. (2009) Mechanosensitivity of fibroblast cell shape and movement to anisotropic substratum topography gradients, Biomaterials 30: 5433-5444; Kim, et al. (2009) Guided Cell Migration on Microtextured Substrates with Variable Local Density and Anisotropy, Adv Funct Mater 19: 1579-1586; Garzon-Muvdi, et al. (2012) Regulation of brain tumor dispersal by NKCC1 through a novel role in focal adhesion regulation, PLoS Biol 10: e1001320). The 24 well NanoSurface plate was purchased from Curi Bio (Seattle, Wash.). Prior to cell seeding, nanoridges surfaces were coated with laminin (3 μg/cm^2, Sigma-Aldrich). Cells were plated at low density (1×10^4 cells/ml) and incubated at 37° C. overnight. The following day, cells were washed with PBS and cultured in DMEM supplemented with 1% FBS and were ready for time-lapse imaging. To measure cell proliferation, 6 hours after plating Histone2B-GFP (C10594, ThermoFisher) was added for nuclear staining overnight. The next day cells were incubated with a mixture of BioTracker® NTP-Transporter Molecule (SCT064, Sigma Aldrich) and Cy3-dUTP (50-190-5459, ThermoFisher) for 10 minutes and then replaced with 1% FBS media containing HB2B2-GFP. For time-lapse imaging, the plate was mounted onto the stage of Andor spinning disk confocal microscope equipped with temperature and CO2 controlling environmental chamber. […] Both fluorescent and bright-field images were taken every 30 minutes for 24 hours using a 10× objective. ImageJ manual track Plugin was used to track the movement of cells frame by frame.\nAnalysis of individual cellular movement was performed as described elsewhere herein. EGF (50 ng/ml) or vehicle was added 6 hours after the start of time-lapse imaging (n=63 cells). Vehicle was used as a negative control (n=67 cells). Single cell migration speed was calculated using Manual tracking Plugin in ImageJ. […] Cell migration velocity was calculated over a period of 6 hours. […] Analysis of individual cell proliferation was performed as described elsewhere herein. EGF (50 ng/ml) was added 6 hours after the start of time-lapse imaging (n=56). Vehicle was used as a negative control (n=64). Representative static time-lapse Cy3 and H2B-GFP staining images of the same cell before and after addition of EGF are shown in FIG. 25E. […] Each point represents the percentage of Ki positive cells in total 100 cells. […] Cell migration velocity was calculated over a period of 6 hours (n=81). Vehicle was used as a negative control (n=89). […] Scale bar=[…]. Data are represented as media ±5-95% interquartile range (FIG. 25B and FIG. 25K) or mean±SEM (FIG. 25D and FIG. 25M). ***P<0.001, […], n.s. not significant, Mann-Whitney test was used for pair comparison. Two-way ANOVA test was used to analyze Cy3 intensity data in FIG. 25D and FIG. 25M. The results are representative of two independently repeated experiments.\nSingle-cell migration analysis was performed as described for FIG. 25A above (Vehicle group, n=57, EGF group, n=74). […] Cell migration velocity was calculated over a period of 6 hours. Vehicle was used as a negative control (n=57). […] Analysis of individual cell proliferation was performed as described elsewhere herein. […] Cell migration velocity was calculated over a period of 6 hours. […]"}, "RhoA": {"tested_on": "RhoA", "test": "RhoA pull down assay (RhoA-GTP)", "details": "24 hours, GBM12 and GBM6", "protocol": "The amount of GTP-bound RhoA and Cdc42 were measured using RhoA and Cdc42 pull down assay kit (Cell Signaling) according to the protocol provided by the manufacturer. Briefly, cell lysates were incubated with either glutathione S-transferase (GST)-Rhotekin-RBD or GST-PAK-PBD beads 4° C. for 1 hour to pull down GTP-bound RhoA or Cdc42. Beads were washed four times in washing buffer and re-suspended in lysis buffer. RhoA-GTP and Cdc42-GTP were detected by Western blot using RhoA and Cdc42 antibodies."}}}
{"compound": "C[C@@H]1CCN(C(=O)CC#N)C[C@@H]1N(C)c1ncnc2[nH]ccc12", "note": "[tofacitinib]", "values": [{"measurement": "EGR1 levels and activity", "setting": "EGR1; tofacitinib, Western blot 4 hours, luciferase 2 and 24 hours", "result": "induces EGR1 levels and activity"}, {"measurement": "proliferation (BrdU incorporation)", "setting": "GBM12, GBM6, and GBM22; tofacitinib 1 μM", "result": "induced proliferation"}, {"measurement": "single cell migration", "setting": "GBM12 and GBM22 cells; tofacitinib 1 μM, GBM12", "result": "decreased invasion"}, {"measurement": "single cell proliferation (Cy3)", "setting": "GBM12 and GBM22 cells; tofacitinib 1 μM, GBM12", "result": "increased proliferation"}, {"measurement": "single cell migration and proliferation", "setting": "GBM12 and GBM22 cells; tofacitinib 1 μM, second PDX line (GBM22)", "result": "confirmed"}]}
{"compound": "HGF: the ligand for Met", "values": [{"measurement": "RhoA activity", "setting": "RhoA; HGF", "result": "increase in RhoA activity"}]}
{"compound": "EGF: Recombinant human EGF (AF-100) from Peprotech; EGFR ligand", "values": [{"measurement": "RhoA activity", "setting": "RhoA; EGF 50 ng/ml", "result": "decreases the activity"}, {"measurement": "EGR1 mRNA, protein and transcriptional activity", "setting": "EGR1; EGF 50 ng/ml, GBM12 and GBM6", "result": "upregulation of EGR1 was confirmed"}, {"measurement": "proliferation (BrdU incorporation)", "setting": "GBM12, GBM6, and GBM22; EGF 50 ng/ml", "result": "induces proliferation"}, {"measurement": "single cell migration", "setting": "GBM12 and GBM22 cells; EGF 50 ng/ml, GBM12", "result": "significant slowing of migration"}, {"measurement": "single cell proliferation (Cy3 linked marker, Ki-67)", "setting": "GBM12 and GBM22 cells; EGF 50 ng/ml, GBM12", "result": "induces proliferation"}]}
